Experiments:
[1] = Therapeutic index in infected mice (antimalaria activity compared with semi-chronic toxicity); format: in vivo; conditions: mouse, in vivo, i.p. or s.c., twice a day for four days, ratio of activity over toxicity (LD50)
Description: In order to evaluate the therapeutic index of the different products, the activity of these products was tested in vivo and compared with […] toxicity in animals. This activity was measured using the test described by PETERS W. (Chemotherapy and Drug resistance in Malaria, 1970). A compound was administered for four consecutive days to mice previously infected with Plasmodium vinckei, petterei or chabaudi. The said compound was dissolved in a 0.9% NaCl solution. The preparations were thus administered intraperitoneally or subcutaneously in male Swiss mice infected by intravenous injection of Plasmodium petterei or Plasmodium chadaudi (10^6 infected cells). The compound was administered twice a day for four consecutive days, the first injection being performed two hours after the infestation and the second, 10 hours later. The parasitemia was determined on blood smears the day after the end of treatment. Toxicity was measured in vivo following the same schedule, the animals having received, under the same administration conditions as above, two injections per day for four days (semi-chronic toxicity). The results are expressed in lethal dose 50 (LD50), i.e. the dose causing death in 50% of the animals.
The results of these trials are summarized in Table I, below, and expressed as therapeutic index, or the ratio of activity over toxicity measured under the identical conditions described above.

[2] = test system: Babesia bovis, Babesia canis; assay: In vitro antibabesia activity, (3H) hypoxanthine incorporation; format: cell-based; conditions: score from ED50 of (3H) hypoxanthine incorporation
Text: The screening process for antimalaria activity, based on parasite incorporation of (^3 H) hypoxanthine was used to test the antimetabolic activity of such components against Babesia bovis, Babesia canis. A tight relationship was found between the rate of (^3 H) hypoxanthine incorporation using standard measurements and the percentage of parasitized cells determined by microscopy. […] The score was ++ for the same activity at a concentration of 0.01 to 0.1 micromoles and finally + for a concentration under or equal to 1 micromole.

Row | SMILES | selectivity ratio [1] | Antibabesia activity at 10 millimoles [2]
1 | CCC[N+](C)(CC)CCCCCCCCCCCCCC[N+](C)(CC)CCC (stereo not drawn) [EXAMPLE 1, N,N'-dimethyl-N,N'-diethyl-N,N'-dipropyl-1,14 tetradecanediaminium, dibromide] | 50 | ++ (the same activity at a concentration of 0.01 to 0.1 micromoles)
2 | CCC[N+](C)(CC)CCCCCCCCCCCCCCC[N+](C)(CC)CCC.[Br-].[Br-] (stereo not drawn) [EXAMPLE 2, N,N'-dimethyl-N,N'-diethyl-N,N'-dipropyl-1,15-pentadecanediaminium dibromide] | 42 | + (a concentration under or equal to 1 micromole)
3 | CCC[N+](C)(CC)CCCCCCCCCCCCCCCC[N+](C)(CC)CCC.[Br-].[Br-] (stereo not drawn) [EXAMPLE 3, N,N'-dimethyl-N,N'-diethyl-N,N'-dipropyl-1,16-hexadecanediaminium dibromide] | 15 | –
4 | CCC[N+](C)(CC)CCCCCCCCCCCCCCCCC[N+](C)(CC)CCC.[Br-].[Br-] (stereo not drawn) [EXAMPLE 4, N,N'-dimethyl-N,N'-diethyl-N,N'-dipropyl-1,17-heptadecanediaminium dibromide] | 17 | ++ (the same activity at a concentration of 0.01 to 0.1 micromoles)
5 | CCC[N+](C)(CC)CCCCCCCCCCCCCCCCCC[N+](C)(CC)CCC.[Br-].[Br-] (stereo not drawn) [EXAMPLE 5, N,N'-dimethyl-N,N'-diethyl-N,N'-dipropyl-1,18-octadecanediaminium dibromide] | 12 | +++ (a 50% inhibition of (^3 H) hypoxanthine incorporation (ED50), these molecules having a concentration less than or equal to 0.01 micromoles)
6 | CCC[N+](C)(CC)CCCCCCCCCCCCCCCCCCCC[N+](C)(CC)CCC.[Br-].[Br-] (stereo not drawn) [EXAMPLE 6, N,N'-dimethyl-N,N'-diethyl-N,N'-dipropyl-1,20-eicosanediaminium dibromide] | 15 | ++ (the same activity at a concentration of 0.01 to 0.1 micromoles)
7 | CCC[N+](C)(CC)CCCCCCCCCCCCCCCCCCCCCC[N+](C)(CC)CCC (stereo not drawn) [EXAMPLE 7, N,N'-dimethyl-N,N'-diethyl-N N'-dipropyl-1,22-cosanediaminium dibromide] | 35 | ++ (the same activity at a concentration of 0.01 to 0.1 micromoles)
8 | CCC[N+](CCC)(CCC)CCCCCCCCCCCCCC[N+](CCC)(CCC)CCC.[Br-].[Br-] [EXAMPLE 8, N,N,N,N',N',N'-hexapropyl-1,14-tetradecanediaminium dibromide] | 20 | + (a concentration under or equal to 1 micromole)
9 | CCC[N+](CCC)(CCC)CCCCCCCCCCCCCCCCCCCC[N+](CCC)(CCC)CCC.[Br-].[Br-] [EXAMPLE 10, N,N,N,N', N',N'-hexapropyl-1,20-eicosanediaminium dibromide] | 14 | + (a concentration under or equal to 1 micromole)
10 | CCC[N+](CCC)(CCC)CCCCCCCCCCCCCCCCCCCCCCCC[N+](CCC)(CCC)CCC.[Br-].[Br-] [EXAMPLE 11, N,N,N,N',N',N'-hexapropyl-1,24-tetracosanediaminium dibromide] | 28 | + (a concentration under or equal to 1 micromole)
11 | CC[N+](C)(CC)CCCCCCCCCCCCCCCC[N+](C)(CC)CC [EXAMPLE 13, N,N'-dimethyl-,N,N,N',N'-tetraethyl-1,16-hexadecanediaminium dibromide] | 6 | +++ (a 50% inhibition of (^3 H) hypoxanthine incorporation (ED50), these molecules having a concentration less than or equal to 0.01 micromoles)
12 | CC[N+](C)(CC)CCCCCCCCCCCCCCCCCC[N+](C)(CC)CC [EXAMPLE 14, N,N'-dimethyl-,N,N,N',N'-tetraethyl-1,18-octadecanediaminium dibromide] | 14 | +++ (a 50% inhibition of (^3 H) hypoxanthine incorporation (ED50), these molecules having a concentration less than or equal to 0.01 micromoles)
13 | CC[N+](C)(CC)CCCCCCCCCCCCCCCCCCCCC[N+](C)(CC)CC [EXAMPLE 15, N,N'-dimethyl-,N,N,N',N'-tetraethyl-1,21-heneicosanediaminium dibromide] | 12 | +++ (a 50% inhibition of (^3 H) hypoxanthine incorporation (ED50), these molecules having a concentration less than or equal to 0.01 micromoles)
14 | C[N+]1(CCCCCCCCCCCCCC[N+]2(C)CCCC2)CCCC1 [EXAMPLE 16, 1,1'-(1,14-tetradecanediyl)bis(1-methylpyrrolidium) dibromide] | 8 | +++ (a 50% inhibition of (^3 H) hypoxanthine incorporation (ED50), these molecules having a concentration less than or equal to 0.01 micromoles)
15 | C[N+]1(CCCCCCCCCCCCCCCC[N+]2(C)CCCC2)CCCC1 [EXAMPLE 17, 1,1'-(1,16-hexadecanediyl)bis(1-methylpyrrolidium) dibromide] | 7 | +++ (a 50% inhibition of (^3 H) hypoxanthine incorporation (ED50), these molecules having a concentration less than or equal to 0.01 micromoles)
16 | C[N+]1(CCCCCCCCCCCCCCCCCCCCCC[N+]2(C)CCCC2CO)CCCC1CO (stereo not drawn) [EXAMPLE 19, 1,1'-(1,22-docosanediyl)bis(2-hydroxymethl-1-methylpyrrolidium) dibromide] | 40 | + (a concentration under or equal to 1 micromole)
17 | C[N+]1(CCCCCCCCCCCCCCCC[N+]2(C)CCOCC2)CCOCC1 [EXAMPLE 21, 1,1'-(1,16-hexadecanediyl)bis(1-methylmorphofinium) dibromide] | 25 | +++ (a 50% inhibition of (^3 H) hypoxanthine incorporation (ED50), these molecules having a concentration less than or equal to 0.01 micromoles)
18 | CCCCCCCCCCCC[N+](C)(C)CCCCCCCCCCCCCCCC[N+](C)(C)CCCCCCCCCCCC.[Br-].[Br-] [EXAMPLE 22, N,N'-didodecyl-N,N,N',N'-tetramethyl-1,16-hexadecanediaminium dibromide] | 20 | ++ (the same activity at a concentration of 0.01 to 0.1 micromoles)
19 | CCCCCCCCCCCC[N+](C)(C)CCCCCCCCCCCCCCCCCC[N+](C)(C)CCCCCCCCCCCC [EXAMPLE 23] | 35 | + (a concentration under or equal to 1 micromole)
20 | C#CC[N+](C)(C)CCCCCCCCCCCCCC[N+](C)(C)CC#C.[Br-].[Br-] [EXAMPLE 24, N,N'-di(2-propynyl)-N,N,N',N'-tetramethyl-1,14-tetradecandiaminium dibromide] | 12 | ++ (the same activity at a concentration of 0.01 to 0.1 micromoles)
21 | C=CC[N+](C)(C)CCCCCCCCCCCCCC[N+](C)(C)CC=C.[Br-].[Br-] [EXAMPLE 25, N,N'-di(2-propenyl)-N,N,N',N'-tetramethyl-1,14-tetradecanediaminium dibromide] | 15 | +++ (a 50% inhibition of (^3 H) hypoxanthine incorporation (ED50), these molecules having a concentration less than or equal to 0.01 micromoles)
22 | C#CCC[N+](C)(C)CCCCCCCCCCCCCC[N+](C)(C)CCC#C.[Br-].[Br-] [EXAMPLE 26, N,N'-di(3-butynyl)-N,N,N',N'-tetramethyl-1,14-tetradecanediaminium dibromide] | 45 | ++ (the same activity at a concentration of 0.01 to 0.1 micromoles)
23 | CCC[N+](CCC)(CCO)CCCCCCCCCCCCCC[N+](CCC)(CCC)CCO.[Br-].[Br-] [EXAMPLE 27, N,N'-di(2-hydroxyethyl)-N,N,N',N'-tetrapropyl-1,14-tetradecanediaminium dibromide] | 15 | ++ (the same activity at a concentration of 0.01 to 0.1 micromoles)
24 | CCC[N+](CCC)(CCCCCCCCCCCCCC[N+](CCC)(CCC)CCOCC)CCOCC.[Br-].[Br-] [EXAMPLE 28, N,N'-di(2-ethoxyethyl)-N,N,N',N'-tetrapropyl-1,14-tetradecanediaminium dibromide] | 40 | +++ (a 50% inhibition of (^3 H) hypoxanthine incorporation (ED50), these molecules having a concentration less than or equal to 0.01 micromoles)
25 | CCC[N+](CCC)(CCO)CCCCCCCCCCCCCCCC[N+](CCC)(CCC)CCO.[Br-].[Br-] [EXAMPLE 29, N,N'-di-(2-hydroxyethyl)-N,N,N',N'-tetrapropyl-1,16 hexadecane diaminium dibromide] | 12 | ++ (the same activity at a concentration of 0.01 to 0.1 micromoles)
26 | CCC[N+](CCC)(CCO)CCCCCCCCCCCCCCCCCCCC[N+](CCC)(CCC)CCO.[Br-].[Br-] [EXAMPLE 30, N,N'-di(2-hydroxyethyl)-N,N,N',N'-tetrapropyl-1,20-eicosanediaminium dibromide] | 55 | +++ (a 50% inhibition of (^3 H) hypoxanthine incorporation (ED50), these molecules having a concentration less than or equal to 0.01 micromoles)

From US6096788A, “Antimalaria and antibabesiosis agents and pharmaceutical compositions containing such agents” (priority 1996, dated 2000)
